Test results: US20230278972A1, “SUBSTITUTED HALOALKYL SULFONANILIDE HERBICIDES” (FMC Corporation, priority 2020, published 2023)

Columns and labels:
Assay type in all cases: in vivo
[1] = system: blackgrass (Alopecurus myosuroides); test: Test A1 preemergence, blackgrass
Method in brief: (§1)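 Herbicidal response was scored on plants treated either preemergence, by directed spray onto soil of a loam–sand blend after sowing, or postemergence on potted plants at the one- to two-leaf stage, 2–10 cm high. Test chemicals were carried in a non-phytotoxic solvent mix with surfactant.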

corn (Zea mays) = test: Test A1 postemergence, corn; details: Postemergence
Method in brief: as §1

soybean (Glycine max) = test: Test A1 preemergence, soybean
Method in brief: as §1

[2] = system: horseweed (Erigeron canadensis); test: Test A1 postemergence, horseweed; details: Postemergence
Method in brief: as §1

[3] = system: goosegrass (Eleusine indica); test: Test A1 preemergence, goosegrass
Method in brief: as §1

[4] = system: Pigweed, Palmer (palmer amaranth, palmer pigweed, Amaranthus palmeri); test: Test A1 preemergence, Pigweed, Palmer
Method in brief: as §1

[5] = system: goosegrass (Eleusine indica); test: Test A1 postemergence, goosegrass; details: Postemergence
Method in brief: as §1

[6] = system: Ryegrass, Italian (Italian ryegrass, Lolium multiflorum); test: Test A1 postemergence, Ryegrass, Italian; details: Postemergence
Method in brief: as §1

[7] = 31 g ai/ha, 0 to 100 scale (0 no effect, 100 complete control)
[8] = 125 g ai/ha, 0 to 100 scale, 0 no effect, 100 complete control
[9] = 31 g ai/ha, 0 to 100 scale (0 no effect, 100 complete control), 10 days

SMILES | Plant response rating, Blackgrass [1, 7] | Plant response rating, Blackgrass [1, 8] | Plant response rating, Corn (corn (Zea mays); [9]) | Plant response rating, Corn (corn (Zea mays); 125 g ai/ha, 0 to 100 scale) | Plant response rating, Soybean (soybean (Glycine max); [7]) | Plant response rating, Soybean (soybean (Glycine max); [8]) | Plant response rating, Horseweed [2, 9] | Plant response rating, Horseweed ([2]; 125 g ai/ha, 0 to 100 scale) | Plant response rating, Goosegrass [3, 7] | Plant response rating, Goosegrass [3, 8] | Plant response rating, Pigweed, Palmer [4, 7] | Plant response rating, Pigweed, Palmer [4, 8] | Plant response rating, Goosegrass [5, 9] | Plant response rating, Goosegrass ([5]; 125 g ai/ha, 0 to 100 scale) | Plant response rating, Ryegrass, Italian [6, 9] | Plant response rating, Ryegrass, Italian ([6]; 125 g ai/ha, 0 to 100 scale)
Cc1c(C(=O)N2CCOCC2)cc(NS(=O)(=O)C(F)(F)F)c(Cl)c1F [Compound 321] | 0 | 70 | 10 | 20 | 60 | 60 | 70 | 80 | 70 | 100 | 90 | 100 | 0 | 80 | 30 | 40
Cc1cc(C)c(C2=NOC(OCC(C)C)C2)cc1NS(=O)(=O)C(F)(F)F (stereo not shown) [Compound 322] | 0 | 70 | 0 | 0 | 0 | 0 | 0 | 40 | 0 | 90 | 40 | 90 | 20 | 50 | 0 | 40
CCCCOC1CC(c2cc(NS(=O)(=O)C(F)(F)F)c(C)cc2C)=NO1 (stereo not shown) [Compound 323] | 0 | 30 | 0 | 0 | 0 | 0 | 0 | 50 | 50 | 90 | 90 | 100 | 0 | 50 | 0 | 20
CCOC(=O)N(c1cc(C(=O)N2CCOCC2)c(C)c(C)c1C)S(=O)(=O)C(F)(F)F [Compound 325] | 0 | 40 | 10 | 30 | 0 | 60 | 90 | 90 | 100 | 100 | 80 | 100 | 0 | 90 | 0 | 60
CCOC(=O)N(c1cc(C(=O)N2CCCCC2)c(C)c(C)c1C)S(=O)(=O)C(F)(F)F [Compound 330, Ethyl N-[(trifluoromethyl)sulfonyl]-N-[2,3,4-trimethyl-5-(1-piperidinylcarbonyl)phenyl]carbamate] | 0 | 30 | 0 | 10 | 0 | 30 | 80 | 90 | 40 | 100 | 70 | 80 | 0 | 40 | 0 | 0
Cc1c(C(=O)N2C[C@@H](C)O[C@@H](C)C2)cc(N(COC(=O)C(C)(C)C)S(=O)(=O)C(F)(F)F)c(C)c1C [Compound 331] | 0 | 0 | 10 | 50 | 0 | 10 | 70 | 80 | 0 | 90 | 0 | 30 | 0 | 50 | 10 | 50
CCOC(=O)N(c1cc(C(=O)N2C[C@@H](C)O[C@@H](C)C2)c(C)c(C)c1C)S(=O)(=O)C(F)(F)F [Compound 332] | 0 | 0 | 0 | 50 | 20 | 70 | 60 | 80 | 50 | 90 | 60 | 90 | 0 | 90 | 0 | 50
